Data from patent US20210261621A1, “Preparation of Dilipid Polymixins and Use Thereof as Antimicrobial Adjuvants” (priority 2018, published 2021).
Read-outs that look alike come from different tables or passages of the source. Positions of bridges follow the written chain, without caps; N, C: chain ends. Non-standard residues stand in square brackets, D forms with d. Residues, ends and D or L forms follow the SMILES beside them. *: point of attachment. Dab = NCC[C@H](N)C(=O)O; Butyryl = CCCC(=O)*

Tests used:
[1] = test system: P. aeruginosa PAO1; design: MICDrug / MICDrug in combo / MIC of adjuvant in combo: unit not given beside the values
[2] = test system: E. coli CANWARD-2011 97615; format: cell-based, Escherichia coli
Source text: Bacterial strains were either obtained from the American Type Culture Collection (ATCC), Canadian National Intensive Care Unit (CAN-ICU) surveillance study or the Canadian Ward Surveillance (CANWARD) study. Strains from both CAN-ICU and CANWARD are isolates recovered from patients diagnosed with a presumed infectious disease that were admitted in a participating medical center across Canada. Efflux-deficient strain PAO200 (lacking MexAB-OprM efflux system) and PA0750 (lacking MexAB-OprM, MexCD-OprJ, MexEF-OprN, MexJK and MexXY efflux systems, and the outer membrane protein OpmH) were kindly gifted by Dr. Ayush Kumar (University of Manitoba).
The in vitro antibacterial activity of the compounds studied were assessed by broth microdilution susceptibility testing following CLSI guidelines. Bacterial cultures were grown overnight prior to the assay. The overnight grown cultures were diluted in saline to 0.5 McFarland turbidity, followed by 1:50 dilution in Mueller-Hinton broth (MHB) for inoculation to a final concentration of approximately 5×10^5 colony forming units/mL. Testing was performed on 96-well plates where the tested compounds were 2-fold serially diluted in MHB and incubated with equal volumes of bacterial inoculum at 37° C. for 18 h. […] Wells containing MHB with or without bacterial cells were used as positive or negative control, respectively.

[3] = test system: P. aeruginosa CANWARD-2011 96846; format: cell-based, Pseudomonas aeruginosa
Procedure, shortened: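 Broth microdilution per CLSI: overnight cultures adjusted to 0.5 McFarland in saline, diluted 1:50 in Mueller-Hinton broth to ~5×10^5 CFU/mL final, and incubated with 2-fold serial compound dilutions at 37° C. for 18 h. […]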

[4] = test system: pig erythrocytes; conditions: red cells of pig, 1 h, 512

CCCC(=O)NCC[C@H](NC(=O)CCC)C(=O)N[C@H](C(=O)N[C@@H](CCN)C(=O)N[C@H]1CCNC(=O)[C@H]([C@@H](C)O)NC(=O)[C@H](CCN)NC(=O)[C@H](CCN)NC(=O)[C@H](CC(C)C)NC(=O)[C@@H](Cc2ccccc2)NC(=O)[C@H](CCN)NC1=O)[C@@H](C)O [Compound 1, Dibutyric Acid (Di-C4) Polymyxin] (Butyryl-[Dab](Butyryl)T[Dab][Dab][Dab][dF]L[Dab][Dab]T; lactam 4-C)
MIC of adjuvant alone (MIC1, MIC2, MIC3, MIC4, MIC5, MICPMBN) ([1]; adjuvant alone, one value per checkerboard, in µg/mL): 128
Interpretation ([1]; combination with Aztreonam): Synergy (An FIC index of ≤0.5, 0.5<x≤4, or >4 denotes for synergistic, additive or antagonistic interaction, respectively)
Interpretation ([1]; combination with Ceftazidime): Synergy (An FIC index of ≤0.5, 0.5<x≤4, or >4 denotes for synergistic, additive or antagonistic interaction, respectively)
Interpretation ([1]; combination with Chloramphenicol): Synergy (An FIC index of ≤0.5, 0.5<x≤4, or >4 denotes for synergistic, additive or antagonistic interaction, respectively)
Interpretation ([1]; combination with Ciprofloxacin): Synergy (An FIC index of ≤0.5, 0.5<x≤4, or >4 denotes for synergistic, additive or antagonistic interaction, respectively)
Interpretation ([1]; combination with Clindamycin): Synergy (An FIC index of ≤0.5, 0.5<x≤4, or >4 denotes for synergistic, additive or antagonistic interaction, respectively)
Interpretation ([1]; combination with Doripenem): Additive (An FIC index of ≤0.5, 0.5<x≤4, or >4 denotes for synergistic, additive or antagonistic interaction, respectively)
Interpretation ([1]; combination with Doxycycline): Synergy (An FIC index of ≤0.5, 0.5<x≤4, or >4 denotes for synergistic, additive or antagonistic interaction, respectively)
Interpretation ([1]; combination with Fosfomycin): Synergy (An FIC index of ≤0.5, 0.5<x≤4, or >4 denotes for synergistic, additive or antagonistic interaction, respectively)
Interpretation ([1]; combination with Gentamicin): Additive (An FIC index of ≤0.5, 0.5<x≤4, or >4 denotes for synergistic, additive or antagonistic interaction, respectively)
Interpretation ([1]; combination with Linezolid): Synergy (An FIC index of ≤0.5, 0.5<x≤4, or >4 denotes for synergistic, additive or antagonistic interaction, respectively)
Interpretation ([1]; combination with Meropenem): Synergy (An FIC index of ≤0.5, 0.5<x≤4, or >4 denotes for synergistic, additive or antagonistic interaction, respectively)
Interpretation ([1]; combination with Minocycline): Synergy (An FIC index of ≤0.5, 0.5<x≤4, or >4 denotes for synergistic, additive or antagonistic interaction, respectively)
Interpretation ([1]; combination with Moxifloxacin): Synergy (An FIC index of ≤0.5, 0.5<x≤4, or >4 denotes for synergistic, additive or antagonistic interaction, respectively)
Interpretation ([1]; combination with Novobiocin): Synergy (An FIC index of ≤0.5, 0.5<x≤4, or >4 denotes for synergistic, additive or antagonistic interaction, respectively)
Interpretation ([1]; combination with Piperacillin): Additive (An FIC index of ≤0.5, 0.5<x≤4, or >4 denotes for synergistic, additive or antagonistic interaction, respectively)
Interpretation ([1]; combination with Pleuromutilin): Synergy (An FIC index of ≤0.5, 0.5<x≤4, or >4 denotes for synergistic, additive or antagonistic interaction, respectively)
Interpretation ([1]; combination with Rifampicin): Synergy (An FIC index of ≤0.5, 0.5<x≤4, or >4 denotes for synergistic, additive or antagonistic interaction, respectively)
Interpretation ([1]; combination with Streptomycin): Additive (An FIC index of ≤0.5, 0.5<x≤4, or >4 denotes for synergistic, additive or antagonistic interaction, respectively)
Interpretation ([1]; combination with Tobramycin): Additive (An FIC index of ≤0.5, 0.5<x≤4, or >4 denotes for synergistic, additive or antagonistic interaction, respectively)
Interpretation ([1]; combination with Trimethoprim): Synergy (An FIC index of ≤0.5, 0.5<x≤4, or >4 denotes for synergistic, additive or antagonistic interaction, respectively)
Interpretation ([1]; combination with Vancomycin): Synergy (An FIC index of ≤0.5, 0.5<x≤4, or >4 denotes for synergistic, additive or antagonistic interaction, respectively)
MIC of adjuvant in combo ([1]; in combination with Aztreonam): (32)
MIC of adjuvant in combo ([1]; in combination with Ceftazidime): (32)
MIC of adjuvant in combo ([1]; in combination with Chloramphenicol): (4)
MIC of adjuvant in combo ([1]; in combination with Ciprofloxacin): (32)
MIC of adjuvant in combo ([1]; in combination with Clindamycin): (8)
MIC of adjuvant in combo ([1]; in combination with Doripenem): (32)
MIC of adjuvant in combo ([1]; in combination with Doxycycline): (2)
MIC of adjuvant in combo ([1]; in combination with Fosfomycin): (16)
MIC of adjuvant in combo ([1]; in combination with Gentamicin): (0.0625)
MIC of adjuvant in combo ([1]; in combination with Linezolid): (4)
MIC of adjuvant in combo ([1]; in combination with Meropenem): (32)
MIC of adjuvant in combo ([1]; in combination with Minocycline): (2)
MIC of adjuvant in combo ([1]; in combination with Moxifloxacin): (16)
MIC of adjuvant in combo ([1]; in combination with Novobiocin): (8)
MIC of adjuvant in combo ([1]; in combination with Piperacillin): (32)
MIC of adjuvant in combo ([1]; in combination with Pleuromutilin): (8)
MIC of adjuvant in combo ([1]; in combination with Rifampicin): (2)
MIC of adjuvant in combo ([1]; in combination with Streptomycin): (32)
MIC of adjuvant in combo ([1]; in combination with Tobramycin): (0.5)
MIC of adjuvant in combo ([1]; in combination with Trimethoprim): (16)
MIC of adjuvant in combo ([1]; in combination with Vancomycin): (32)
MIC [2]: >128 µg/mL
MIC [3]: >128 µg/mL
% Hemolysis at 512 μg/mL of polymyxin [4]: 1.1 ± 1.6%
